Marks after values point to notes of the source that are not given here.
Columns and labels:
[1] = target: T1, ERR1 (also known as ERR-α or ERR-1) (Homo sapiens, UniProt P11474); assay: TR-FRET assay (disruption of co-activator peptide binding to ERR1 LBD); type: biochemical
T1 sequence (P11474 193-421 limits assumed): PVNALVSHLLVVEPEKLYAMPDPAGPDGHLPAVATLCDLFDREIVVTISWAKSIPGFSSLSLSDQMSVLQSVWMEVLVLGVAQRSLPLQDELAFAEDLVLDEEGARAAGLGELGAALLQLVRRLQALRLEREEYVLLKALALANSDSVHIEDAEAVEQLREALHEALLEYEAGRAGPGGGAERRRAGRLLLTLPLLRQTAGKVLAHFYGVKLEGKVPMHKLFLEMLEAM
Description: Time-Resolved Fluorescence Resonance Energy Transfer (TR-FRET) experiments were performed to examine the functional response of ERR1 (also known as ERR-α or ERR-1) ligands. The TR-FRET assay described herein relied on the conformation of ERR1 for binding to a co-activator peptide: when a test compound binds to ERR1 and alters its conformation, it can disrupt the binding of the co-activator peptide. The components of this homogeneous secondary assay included: the ^6His-tagged-ERR1LBD, a GST-labeled-hSRC2 co-activator polypeptide and a fluorescent donor/acceptor pair from CIS bio international htrf/bioassays (Bedford, Mass.) using both an α-GST Europium Cryptate (Eu) label and an α^6His-XL665 (allophycocyanin) fluorophore.
Reactions were allowed to reach equilibrium at 25° C. for 4-18 hours before collecting data on the Analyst from LJL Biosystems (Molecular Devices Sunnyvale, Calif.). […] Dose response curves were fitted using a hyperbolic equation and the data reported is the average of 3 independent experiments.

ZDF fa/fa male rats = assay: ZDF diabetic rat model (3, 10, 30 mpk); type: in vivo; settings: for % Fat Day 18: Q-NMR; for FFA (NEFA) / Glucose / Triglycerides / cholesterol / ketone: 26 day ZDF rat efficacy study; for circulating glucose levels upon intraperitoneal delivery of insulin (ITT): FIG. 4, ITT at day 11
Source text: The ZDF rat is a monogenic model of Type II Diabetes. […] This mutation results in a hyperphagic phenotype and the rodent develops obesity, hyperlipidemia, fasting hyperglycemia and Type II Diabetes. The model at 7 weeks of age develops hyperinsulinemia followed by a loss of glucose stimulated insulin secretion due to beta islet failure. Fifty ZDF fa/fa male rats were received at four weeks of age and allowed to acclimate for one week. At five week of age the animals were single housed in cages in a temperature-controlled room with 12-hour light/dark cycle. They were allowed ad libitum access to water and food and throughout the study were maintained on a Purina 5008 diet. Animals were sorted into five groups based first on glucose levels and then at body weight (average fed glucose levels and body weight at 7 weeks of age were 488 mg/dL and 282 grams, respectively). Animals were given Compound 1 orally once a day for 25 days in the morning at 3 mpk, 10 mpk and 30 mpk. A separate group was dosed daily with vehicle. The vehicle used for Compound 1 in this study consisted of 15% VE-TEPG, 30% PEG400 and 55% water. Food intake, body weight, glucose, insulin, triglyceride and free fatty acid levels were monitored throughout the study using blood collected from the tail vein. At day 11 of the study an insulin tolerance test (ITT) was done to evaluate peripheral insulin sensitivity. On day 19 an OGTT was done to assess glucose disposal rates. […] On the day of the necropsy the rats were bled through the orbital sinus under CO2:O2 anesthesia. Animals were sacrificed and several tissues were collected, frozen in liquid nitrogen and stored at −80° C. Serum plasma samples were prepared by centrifugation in EDTA containing tubes, transferred into 96 well plates and stored at −80° C.

C57/BL6 male mice = assay: C57/Bl6 diet induced obesity mouse model; type: in vivo
Source text: C57/B16 mice placed on a high fat diet are characterized by hypertriglyceridemia, impaired glucose tolerance and develop hepatic steatosis. Forty C57/BL6 male mice were received at seven weeks of age, allowed to acclimate for one week, placed on high fat diet (Test Diet 58Y1 60% of the calories from fat) for 6 weeks, and then single housed on the same diet for an additional five weeks. Body mass composition and insulin were used to randomize the animals into three groups. […] Ten additional animals were maintained on a low fat diet (4% calories from fat) and during the course of the study were given vehicle orally once a day. Blood was collected from the tail to evaluate glucose, triglyceride, FFA and insulin levels. Body weight and body composition were also recorded. Upon necropsy animals were bled through the orbital sinus under CO2:O2 anesthesia, sacrificed, and several tissues were collected and frozen in liquid nitrogen for storage at −80° C. for further use. Serum plasma samples were prepared by centrifugation in EDTA containing tubes, transferred to 96 well plates and stored at −80° C. Insulin, FFA and triglyceride levels were obtained via Day 10 tail bleed. On day fourteen an OGTT (Oral Glucose Tolerance Test) was done to determine glucose disposal rates in C57B16 mice treated with compound.

[2] = 10 mpk once a day, HFD, 10 days
[3] = 10 mpk, after 14 days of treatment
[4] = 30 mpk once a day, HFD, 10 days
[5] = 30 mpk, after 14 days of treatment

In the case of `COc1cc(/C=C2\SC(=O)NC2=O)ccc1Oc1ccc(C#N)cc1C(F)(F)F` [Compound 1, 4-[4-(2,4-Dioxo-thiazolidin-5-ylidenemethyl)-2-methoxy-phenoxy]-3-trifluoromethyl-benzonitrile], the EC50 [1] is reported as 54 nM, the “Body weight change (0-25 day)” value (ZDF fa/fa male rats; 3 mpk orally once a day) is reported as 62.7* and the “Total food intake (0-25 days)” value (ZDF fa/fa male rats; 3 mpk orally once a day) is reported as 727. For the same molecule, the “% Fat Day 18” value (ZDF fa/fa male rats; 3 mpk orally once a day) was 58** %, the “FFA (NEFA)” value (ZDF fa/fa male rats; 3 mpk) was 0.65 mM and the Glucose (ZDF fa/fa male rats; 3 mpk) was 584.88 mg/dL. It also gave a Triglycerides (ZDF fa/fa male rats; 3 mpk) of 596.33 mg/dL, a cholesterol (ZDF fa/fa male rats; 3 mpk) of 145.70 mg/dL and a ketone (ZDF fa/fa male rats; 3 mpk) of 183.97 µmol/L. For the same molecule, the “Body weight change (0-25 day)” value (ZDF fa/fa male rats; 10 mpk orally once a day) was 49.3, the “Total food intake (0-25 days)” value (ZDF fa/fa male rats; 10 mpk orally once a day) was 720 and the “% Fat Day 18” value (ZDF fa/fa male rats; 10 mpk orally once a day) was 59** %. The “FFA (NEFA)” value (ZDF fa/fa male rats; 10 mpk) was 0.54 mM, the Glucose (ZDF fa/fa male rats; 10 mpk) was 549.63 mg/dL and the Triglycerides (ZDF fa/fa male rats; 10 mpk) was 402.39** mg/dL. For the same molecule, the cholesterol (ZDF fa/fa male rats; 10 mpk) was 156.08* mg/dL, the ketone (ZDF fa/fa male rats; 10 mpk) was 144.61 µmol/L and the “Body weight change (0-25 day)” value (ZDF fa/fa male rats; 30 mpk orally once a day) was 65.3*. The “Total food intake (0-25 days)” value (ZDF fa/fa male rats; 30 mpk orally once a day) was 703**, the “% Fat Day 18” value (ZDF fa/fa male rats; 30 mpk orally once a day) was 60*** % and the “FFA (NEFA)” value (ZDF fa/fa male rats; 30 mpk) was 0.48 mM. The Glucose (ZDF fa/fa male rats; 30 mpk) was 545.64 mg/dL, the Triglycerides (ZDF fa/fa male rats; 30 mpk) was 320.94*** mg/dL and the cholesterol (ZDF fa/fa male rats; 30 mpk) was 169.92** mg/dL. For the same molecule, the ketone (ZDF fa/fa male rats; 30 mpk) was 134.84* umol/L, the “fed free fatty acid levels” value (ZDF fa/fa male rats; FIG. 3, versus vehicle control) was “reduces” and the fed triglyceride levels (ZDF fa/fa male rats; FIG. 3, versus vehicle control) was “reduces”. For the same molecule, the “circulating glucose levels upon intraperitoneal delivery of insulin (ITT)” value (ZDF fa/fa male rats) was “reduction in circulating glucose levels”, the “circulating glucose levels upon intraperitoneal delivery of insulin (ITT)” value (ZDF fa/fa male rats; listed as compound 1) was “normalizing glucose levels at the 30 minute time point” and the “AUC of glucose during the ITT” value (ZDF fa/fa male rats; FIG. 4 right panel, 0-60 and 0-120 minute time points) was “reduction of AUC of glucose”. For the same molecule, the fasting glucose levels (ZDF fa/fa male rats; FIG. 5, after a 16 hour fast) was “reduction in fasting glucose levels”, the “plasma glucose following an oral glucose tolerance test” value (ZDF fa/fa male rats; FIG. 6, OGTT day 19) was “lowering fasting plasma glucose” and the “insulin release levels following an oral glucose tolerance test” value (ZDF fa/fa male rats; FIG. 7) was “increase on insulin release levels”. For the same molecule, the Hb1Ac levels (ZDF fa/fa male rats; FIG. 8, after 26 days treatment) was “reduction in Hb1Ac levels”, the fed glucose levels (ZDF fa/fa male rats; FIG. 8, first three weeks of the study) was “lowering of fed glucose levels” and the “fed plasma insulin levels” value (ZDF fa/fa male rats; FIG. 9) was “increasing fed plasma insulin levels”. The pancreatic insulin content (ZDF fa/fa male rats; FIG. 9) was “increasing”, the FFA (C57/BL6 male mice; [2]) was 0.38* mEq/L and the Insulin (C57/BL6 male mice; [2]) was 1.4* μg/L. For the same molecule, the Triglyceride (C57/BL6 male mice; 10 mpk once a day, HFD, 10 days, tail bleed) was 58** mg/dL, the “AUC 0-60 min of glucose in OGTT” value (C57/BL6 male mice; [3]) was 15077 mg/dL/1 hr and the “AUC 0-120 min of glucose in OGTT” value (C57/BL6 male mice; [3]) was 27984 mg/dL/2 hr. The 3-hydroxy-butyrate (C57/BL6 male mice; 10 mpk, treated for 18 days) was 6.0 ×10−5, the “FFA (NEFA)” value (C57/BL6 male mice; 10 mpk, treated for 18 days) was 0.49 mEq and the Glucose (C57/BL6 male mice; 10 mpk, treated for 18 days) was 176 mg/dL. The LDL (C57/BL6 male mice; 10 mpk, treated for 18 days) was 12 mg/dL, the Triglyceride (C57/BL6 male mice; 10 mpk, treated for 18 days) was 123 mg/dL and the FFA (C57/BL6 male mice; [4]) was 0.40* mEq/L. The Insulin (C57/BL6 male mice; [4]) was 1.3* μg/L, the Triglyceride (C57/BL6 male mice; 30 mpk once a day, HFD, 10 days, tail bleed) was 59* mg/dL and the “AUC 0-60 min of glucose in OGTT” value (C57/BL6 male mice; [5]) was 14425* mg/dL/1 hr. The “AUC 0-120 min of glucose in OGTT” value (C57/BL6 male mice; [5]) was 28540 mg/dL/2 hr, the 3-hydroxy-butyrate (C57/BL6 male mice; 30 mpk, treated for 18 days) was 9.1* ×10−5 and the “FFA (NEFA)” value (C57/BL6 male mice; 30 mpk, treated for 18 days) was 0.38* mEq. The Glucose (C57/BL6 male mice; 30 mpk, treated for 18 days) was 174 mg/dL, the LDL (C57/BL6 male mice; 30 mpk, treated for 18 days) was 7* mg/dL and the Triglyceride (C57/BL6 male mice; 30 mpk, treated for 18 days) was 58*** mg/dL. For the same molecule, the “plasma glucose following an oral glucose tolerance test” value (C57/BL6 male mice; FIG. 2 and Table VI, after 14 days of treatment) was “reduces fasting plasma glucose following an oral glucose tolerance test”.
